Measurements taken from patent publication US10752921B2, “Enzymes and methods for styrene synthesis” (Phytogene, Inc., priority 2012, dated 2020).
Substitutions are numbered along the chain they refer to. In names and notes the source's numbering stands. Entries after “also recorded” stand apart in the source; their conditions may differ.

B1: K190C (protein, listed as Saccharomyces cerevisiae)
chain: MRKLNPALEFRDFIQVLKDEDDLIEITEEIDPNLEVGAIMRKAYESHLPAPLFKNLKGASKDLFSILGCPAGLRSKEKGDHGRIAHHLGLDPKTTIKEIIDYLLECKEKEPLPPITVPVSSAPCKTHILSEEKIHLQSLPTPYLHVSDGGKYLQTYGMWILQTPDKKWTNWSIARGMVVDDKHITGLVICPQHIRQIADSWAAIGKANEIPFALCFGVPPAAILVSSMPIPEGVSESDYVGAILGESVPVVKCETNDLMVPATSEMVFEGTLSLTDTHLEGPFGEMHGYVFKSQGHPCPLYTVKAMSYRDNAILPVSNPGLCTDETHTLIGSLVATEAKELAIESGLPILDAFMPYEAQALWLILKVDLKGLQALKTTPEEFCKKVGDIYFRTKVGFIVHEIILVADDIDIFNFKEVIWAYVTRHTPVADQMAFDDVTSFPLAPFVSQSSRSKTMKGGKCVTNCIFRQQYERSFDYITCNFEKGYPKGLVDKVNENWKRYGYK
B2: K190L (protein, listed as Saccharomyces cerevisiae)
chain: B1 chain with C190L
B3: K190N (protein, listed as Saccharomyces cerevisiae)
chain: B1 chain with C190N
B4: K190H (protein, listed as Saccharomyces cerevisiae)
chain: B1 chain with C190H
B5: K190D (protein, listed as Saccharomyces cerevisiae)
chain: B1 chain with C190D
B6: K190V (protein, listed as Saccharomyces cerevisiae)
chain: B1 chain with C190V
B7: R1751 (protein, listed as Saccharomyces cerevisiae)
chain: B1 chain with R175I, C190K

Tests used:
FDC1 [1] = target: T1, FDC1 (Saccharomyces cerevisiae, UniProt Q03034); assay: Substrate specificity of FDC1; type: biochemical; conditions: 0.2 mM substrate, 0.5 mg purified FDC1, 5 minutes at 30° C., pH 6.5
T1 construct: N-terminal 6xHis leader of vector pDEST17 (own knowledge of the vector); made in house; host or cells: E. coli BL21 (DE3)
T1 sequence (Q03034 1-503): B1 chain with C190K
Method: The reaction mixtures were then incubated for 5 minutes at 30° C. After the reaction 1 mL of propanol was added to the reaction mixtures to solubilize styrene. The experimental negative control used the same conditions except the reaction mixture contained no substrate.

FDC1 [2] = target: T1, FDC1; assay: Effect of metal ions on FDC1 activity; type: biochemical; conditions: 10 mM metal ion, 1.4 mM tCA, purified FDC1, 5 minutes at 30° C.
Method: After the reaction, 1 mL of propanol was added to the reaction mixtures to solubilize styrene. The experimental control used the same conditions except the reaction mixture contained no metal ions. The experimental negative control used the same conditions except the reaction mixture contained no substrate.
After the reaction, 1 mL of propanol was added to the reaction mixtures to solubilize styrene. The experimental control used the same conditions except the reaction mixture contained no metal ions or EDT A. The experimental negative control used the same conditions except the reaction mixture contained no substrate.

styrene production [3] = assay: Fermentation of E. coli with PAL2-FDC fusion with or without srpABC pump, Phe as substrate; type: cell-based; conditions: control contains only the fusion of PAL2 and FDC
From the text: Some bacteria have developed multiple mechanisms to adapt unfavorable conditions. For example, Pseudomonas strains have about three strategies for addressing organic solvent toxicity, i.e. modified membrane structure, active efflux pumps, and enzymatic detoxification. Here, a recombinant E. coli host expressing an efflux pump (called solvent-resistant-pump) was produced. The pump, a member of the ABC-transporter family, is composed of three subunits, srpA, periplasmic linker; srpB, inner membrane transporter; and srpC, out-membrane channels. The full-length of the srpABC pump sequence (˜6 kb) was cloned from the genomic DNA of P. putida. The clone was first inserted to pENTR vector with Zeocin resistance and then to E. coli expression vector pCONA-2-DEST with Kanamycin resistance.
Finally, the pump was transformed to the E. coli strain BL21 (DE3) containing the fusion of PAL2 and FDC which is resistant to Ampicillin. After the test expression of 5 clones in flasks, one clone was chosen for further experiment with fermenter. Fifty milliliters of overnight culture were inoculated in 1.5 L LB medium containing appropriate antibiotics. When cells reach an OD600˜0.8, 5 mM of IPTG was added to the culture for induction. […] Samples from the overnight fermentation (˜16 hrs) were taken and analyzed by HPLC in coupling with an Acclaim RSLC C18 column and detected at 280 nm. […]

styrene production [4] = assay: Styrene production by FDC1 mutants from tCA (colorimetric screening, confirmed by HPLC); type: cell-based; conditions: E. coli cells, tCA 1 g/L, 30° C. for 4 hours
Method: Saturation mutagenesis allows the change of one amino acid to 19 other alternative amino acid residues. […] The codon NNK has 32-fold degeneracy and encodes all 20 amino acids without rare codons. The QuikChange PCR products were examined by agarose gel electrophoresis and then 15 μl of PCR products were digested with 1 μl Dpnl (New England Biolabs) at 37° C. for 4 hours to remove the template plasmid. Aliquots of (2 μl) digestive products were transformed into BL21-Gold (DE3) competent cells (STRATAgene, CA) and inoculated on Luria-Bertani (LB) agar plates containing kanamycin. The quality of the library by DNA sequencing was confirmed. The library covers 90% of mutagenesis (17 mutants out of 19). To cover 100% (19 out of 19 mutant), we screened 150 mutants for each site.
The transformants (Example II.2) were inoculated in 96-well plates (NUNC, Roskilde, Denmark) containing 100 μl LB broth per well and incubated at 37° C., overnight. The cultures were then mixed with equal amount of 50% glycerol and stored at −80° C. as the master plate. An aliquot of 10 μl culture was inoculated in 2 ml deep-well plates (USA scientific) with 1 ml TB broth per well and incubated at 37° C. until the OD600 reached 1.0. The cultures were then induced by 0.2 mM IPTG and incubated at 18° C. for 20 hours with shaking at 250 rpm.
Cells were harvested and suspended with 0.25 ml PBS buffer at pH 7.0 and the substrate (tCA) was added at a final concentration of 1 g/L. The culture was incubated at 30° C. for 4 hours and the volatile product styrene was collected by using 96 well STRATA-X® reversed phase plate containing 10 mg polymer based resin (Phenomenex) on top of the culture plate (FIG. 19). To avoid styrene vapor diffusion, 96-square well silicone sealing mats with pre-slit were used between 96-well culture plate and 96 well STRATA-X® reversed phase plate. The product was collected by 200 μl propanol for each well and the amount of product was measured by colorimetric method.
Various chemicals were tested as an indicator for styrene detection, including NBP (4-nitrobenzyl-pyridine) as a preferred indicator. Styrene was mixed with cytochrome P450 BM-3 in 50 mM phosphate buffer pH 8.0. The styrene oxidation reaction was started by adding 0.2 mM NADPH, and the reaction mixture was incubated at room temperature for 5 minutes with shaking. The NBP solution was added to the mixture and incubated at room temperature for further 5 minutes with shaking which gives white precipitate. The tube or plate containing reaction mixtures were heated at 70° C. for 30 minutes and chilled on ice for 5 minutes. After adding Dimethylformamide (150 μl) and 25 μl of 1M K2CO3, the reaction mixture gave blue color that can be measured spectrophotometrically at 600 nm immediately. The […] of NBP reacts with the oxirane ring of styrene oxide to yield a blue chromophore a blue color that can be monitored spectrophotometrically at 600 nm.
The mutants showing higher activity were confirmed by HPLC using an ACQUITY UPLC BEH C18 column (1.7-μm, 2.1×50-mm, Waters, USA). The samples were resolved in 30% acetonitrile (A) with an increasing concentration gradient of acetonitrile (B) for 1 min, 95%; then to 1 min, 30%; at a flow rate of 1 ml/min. UV absorption was monitored at 254-, 280-, and 310-nm. The changed amino acid residues in the mutants showing the higher activity were confirmed by DNA sequence.

| Molecule | activity compared with that of tCA (relative activity) (FDC1 [1]) | amount of styrene compared to that of wild type (in words) (styrene production [4]) | further results |
| --- | --- | --- | --- |
| COc1ccc(OC)c(C=CC(=O)O)c1 [2,5-dimethoxycinnamic acid] | did not show any activity | – | – |
| O=C(O)C=Cc1ccccc1O [2-hydroxycinnamic acid] | did not show any activity | – | – |
| Cc1ccccc1C=CC(=O)O [2-methylcinnamic acid] | 35% | – | – |
| COc1ccc(C=CC(=O)O)cc1OC [3,4-dimethoxycinnamic acid] | did not show any activity | – | – |
| O=C(O)C=Cc1cccc(O)c1 [3-hydroxycinnamic acid] | did not show any activity | – | – |
| O=C(O)C=Cc1ccc(O)cc1 [4-hydroxycinnamic acid] | 68% | – | – |
| [Ca+2].[Cl-].[Cl-] [Ca^2+, CaCl2] | – | – | effect of metal ions on FDC1 activity (FDC1 [2]): increased the activity of FDC1 |
| [Cl][Fe]([Cl])[Cl] [Fe^3+, FeCl3] | – | – | effect of metal ions on FDC1 activity (FDC1 [2]): increased the activity of FDC1 |
| O=S(=O)([O-])[O-].[Mg+2] [Mg^2+, MgSO4] | – | – | effect of metal ions on FDC1 activity (FDC1 [2]): increased the activity of FDC1 |
| O=S(=O)([O-])[O-].[Zn+2] [Zn^2+, ZnSO4] | – | – | effect of metal ions on FDC1 activity (FDC1 [2]): increased the activity of FDC1 |
| COc1cc(/C=C/C(=O)O)ccc1O [ferulic acid] | 57% | – | – |
| O=C(O)/C=C/c1ccccc1 [t-cinnamic acid, trans-cinnamic acid] | 100% | – | – |
| ABC-transporter: solvent-resistant efflux pump srpABC cloned from P. putida, subunits srpA, srpB, srpC | – | – | styrene production with ABC-transporter compared to control without (styrene production [3]): significantly increased; also recorded: enhanced nearly four times |
| B1 | – | significantly higher amount of styrene | styrene produced compared to wild type (styrene production [4]): 3 times |
| B2 | – | significantly higher amount of styrene | – |
| B3 | – | significantly higher amount of styrene | – |
| B4 | – | significantly higher amount of styrene | – |
| B5 | – | significantly higher amount of styrene | – |
| B6 | – | significantly higher amount of styrene | styrene produced compared to wild type (styrene production [4]): 3 times |
| B7 | – | significantly higher amount of styrene | styrene produced compared to wild type (styrene production [4]): 1.5 times |
